# Test results taken from patent US20160281050A1, “METHODS FOR TREATING A CULTURE OF HAEMATOCOCCUS PLUVIALIS FOR CONTAMINATION USING SALT AND HYDROGEN PEROXIDE” (HELIAE DEVELOPMENT LLC, priority 2015, published 2016).
# Like-named read-outs stand apart in the source and are kept apart here.
# Columns and labels:
# [1] = tested on: Green swimmer cells of Haematococcus pluvialis (Strain 2)
# Method: (§1) The calculated concentrations of the hydrogen peroxide doses tested were 0.0105, 0.0140, 0.0175, 0.0210, and 0.0245 mL/L. The amount of cell lysis was quantified using visual observation under a microscope after 24, 48, and 72 hours.
# [2] = tested on: red cyst cells of Haematococcus pluvialis (Strain 2)
# Method: as §1
# chytrids = assay: % chytrid infection in flask cultures (Example 6); format: cell-based
# Method: A series of experiments were conducted to evaluate the effectiveness of hydrogen peroxide alone and in combination with concentrations of salt as a treatment for controlling chytrid infections in Haematococcus pluvialis cultures. […] Bioreactor #2420 had just been inoculated with cells in the green swimmer stage into reddening conditions that comprised of culture medium comprising a 1 ppt concentration of sodium chloride (NaCl). The flask experiment consisted of duplicate untreated controls and duplicate treatments.
# The flask cultures contained Haematococcus pluvialis (Strain 1) cells in both the green swimmer stage and early red cyst stage.
# The collected samples were inoculated in the green swimmer stage in growth conditions [i.e., in the absence of sodium chloride (NaCl)].
# The culture samples were inoculated in the green swimmer stage in growth conditions [i.e., in less than 1 ppt of sodium chloride (NaCl)].
# The flask cultures were then diluted 1:3 into reddening media comprising 1 ppt NaCl or 2 ppt NaCl (33.3 mL and 66.6 mL culture media).
# [3] = 0.0140 mL/L three times per day, 24 h
# [4] = 0.0140 mL/L three times per day, 48 h
# [5] = 0.0140 mL/L three times per day, 72 h
# [6] = 0.0175 mL/L three times per day, 24 h
# [7] = 0.0175 mL/L three times per day, 48 h
# [8] = 0.0175 mL/L three times per day, 72 h
# [9] = 0.0210 mL/L three times per day, 24 h
# [10] = 0.0210 mL/L three times per day, 48 h
# [11] = 0.0210 mL/L three times per day, 72 h
# [12] = 0.0245 mL/L three times per day, 24 h
# [13] = 0.0245 mL/L three times per day, 48 h
# [14] = 0.0245 mL/L three times per day, 72 h
substance,measurement,setting,value
hydrogen peroxide [H2O2],% Cell lysis (±1SE),"[1]; 0.0105 mL/L three times per day, 24 h",3.3% ± 1.7%
same,% Cell lysis (±1SE),"[1]; 0.0105 mL/L three times per day, 48 h",5.0% ± 1.7%
same,% Cell lysis (±1SE),"[1]; 0.0105 mL/L three times per day, 72 h",3.3% ± 0.0%
same,cell lysis level,"[1]; 0.0105 mL/L, for at least 72 hours",below 10%
same,% Cell lysis (±1SE),[1]; [3],4.2% ± 0.8%
same,% Cell lysis (±1SE),[1]; [4],5.8% ± 2.5%
same,% Cell lysis (±1SE),[1]; [5],9.2% ± 4.2%
same,% Cell lysis (±1SE),[1]; [6],2.5% ± 0.8%
same,% Cell lysis (±1SE),[1]; [7],9.2% ± 2.5%
same,% Cell lysis (±1SE),[1]; [8],13.3% ± 3.3%
same,% Cell lysis (±1SE),[1]; [9],4.2% ± 2.5%
same,% Cell lysis (±1SE),[1]; [10],6.7% ± 1.7%
same,% Cell lysis (±1SE),[1]; [11],20.0% ± 3.3%
same,cell lysis level,"[1]; 0.0210 mL/L, for 48 hours",below 10%
same,% Cell lysis (±1SE),[1]; [12],15.0% ± 0.0%
same,% Cell lysis (±1SE),[1]; [13],22.5% ± 0.8%
same,% Cell lysis (±1SE),[1]; [14],27.5% ± 2.5%
same,% Cell lysis (±1SE),[2]; [3],1.7% ± 1.0%
same,% Cell lysis (±1SE),[2]; [4],0.8% ± 0.8%
same,% Cell lysis (±1SE),[2]; [5],3.3% ± 0.0%
same,% Cell lysis (±1SE),"[2]; 0.0140 mL/L three times per day, 96 h",3.3% ± 1.7%
same,% Cell lysis (±1SE),[2]; [6],1.1% ± 0.6%
same,% Cell lysis (±1SE),[2]; [7],3.3% ± 1.7%
same,% Cell lysis (±1SE),[2]; [8],5.8% ± 5.8%
same,% Cell lysis (±1SE),"[2]; 0.0175 mL/L three times per day, 96 h",5.8% ± 2.5%
same,% Cell lysis (±1SE),[2]; [9],3.9% ± 2.0%
same,% Cell lysis (±1SE),[2]; [10],0.8% ± 0.8%
same,% Cell lysis (±1SE),[2]; [11],1.7% ± 0.0%
same,% Cell lysis (±1SE),"[2]; 0.0210 mL/L three times per day, 96 h",18.3% ± 1.7%
same,% Cell lysis (±1SE),[2]; [12],3.9% ± 0.6%
same,% Cell lysis (±1SE),[2]; [13],5.0% ± 1.7%
same,% Cell lysis (±1SE),[2]; [14],9.2% ± 0.8%
same,% Cell lysis (±1SE),"[2]; 0.0245 mL/L three times per day, 96 h",51.7% ± 5.0%
same,cell lysis level,"[2]; dosages at or above 0.0175 mL/L, after 48-96 hours",above 10%
same,cell lysis level,"[2]; dosages below 0.0175 mL/L, for at least 96 hours",below 10%
same,reduction in % chytrid infection compared to the control,"chytrids; 4th experiment, starting 5 days after inoculation (144 h)",50-90%
same,Average Chytrid Infection,"chytrids; #2210 samples, absence of NaCl, 0.0075 mL/L two times per day, 0 h",0.0 ± 0.0%
same,Average Chytrid Infection,"chytrids; #2210 samples, absence of NaCl, 0.0075 mL/L two times per day, 24 h",0.0 ± 0.0%
same,Average Chytrid Infection,"chytrids; #2210 samples, absence of NaCl, 0.0075 mL/L two times per day, 48 h",0.0 ± 0.0%
same,Average Chytrid Infection,"chytrids; #2210 samples, absence of NaCl, 0.0075 mL/L two times per day, 96 h",0.0 ± 0.0%
same,Average Chytrid Infection,"chytrids; #2210 samples, absence of NaCl, 0.0075 mL/L two times per day, 120 h",0.0 ± 0.0%
same,Average Chytrid Infection,"chytrids; #2210 samples, absence of NaCl, 0.0075 mL/L two times per day, 144 h",4.2 ± 5.9%
same,Average Chytrid Infection,"chytrids; #2210 samples, absence of NaCl, 0.0075 mL/L two times per day, 168 h",18.3 ± 25.9%
same,Average Chytrid Infection,"chytrids; #2210 samples, absence of NaCl, 0.0075 mL/L two times per day, 192 h",26.6 ± 37.1%
same,Average Chytrid Infection,"chytrids; #2210 samples, absence of NaCl, 0.0075 mL/L two times per day, 264 h",51.7 ± 7.1%
same,Average Chytrid Infection,"chytrids; #2310 samples (4th experiment), 1 ppt NaCl, 0.0075 mL/L 3 times per day, 0 h",0.0 ± 0.0%
same,Average Chytrid Infection,"chytrids; #2310 samples (4th experiment), 1 ppt NaCl, 0.0075 mL/L 3 times per day, 24 h",0.0 ± 0.0%
same,Average Chytrid Infection,"chytrids; #2310 samples (4th experiment), 1 ppt NaCl, 0.0075 mL/L 3 times per day, 48 h",0.0 ± 0.0%
same,Average Chytrid Infection,"chytrids; #2310 samples (4th experiment), 1 ppt NaCl, 0.0075 mL/L 3 times per day, 120 h",1.7 ± 1.7%
same,Average Chytrid Infection,"chytrids; #2310 samples (4th experiment), 1 ppt NaCl, 0.0075 mL/L 3 times per day, 144 h",18.3 ± 18.5%
same,Average Chytrid Infection,"chytrids; #2310 samples (4th experiment), 1 ppt NaCl, 0.0075 mL/L 3 times per day, 168 h",17.2 ± 14.4%
same,Average Chytrid Infection,"chytrids; #2310 samples (4th experiment), 1 ppt NaCl, 0.0075 mL/L 3 times per day, 192 h",32.2 ± 28.1%
same,Average Chytrid Infection,"chytrids; #2310 samples (4th experiment), 1 ppt NaCl, 0.0075 mL/L 3 times per day, 216 h",44.4 ± 46.8%
same,Average Chytrid Infection,"chytrids; #2420 samples, 1 ppt NaCl, 0.0075 mL/L 2-3 times per day, 0 h",0.0 ± 0.0%
same,Average Chytrid Infection,"chytrids; #2420 samples, 1 ppt NaCl, 0.0075 mL/L 2-3 times per day, 24 h",0.0 ± 0.0%
same,Average Chytrid Infection,"chytrids; #2420 samples, 1 ppt NaCl, 0.0075 mL/L 2-3 times per day, 48 h",0.0 ± 0.0%
same,Average Chytrid Infection,"chytrids; #2420 samples, 1 ppt NaCl, 0.0075 mL/L 2-3 times per day, 72 h",0.0 ± 0.0%
same,Average Chytrid Infection,"chytrids; #2420 samples, 1 ppt NaCl, 0.0075 mL/L 2-3 times per day, 144 h",0.0 ± 0.0%
same,Average Chytrid Infection,"chytrids; #2420 samples, 1 ppt NaCl, 0.0075 mL/L 2-3 times per day, 168 h",0.0 ± 0.0%
same,Average Chytrid Infection,"chytrids; #2420 samples, 1 ppt NaCl, 0.0075 mL/L 2-3 times per day, 197 h",0.0 ± 0.0%
same,Average Chytrid Infection,"chytrids; #2420 samples, 1 ppt NaCl, 0.0075 mL/L 2-3 times per day, 217 h",0.0 ± 0.0%
same,Average Chytrid Infection,"chytrids; #2440 samples, 1 ppt salt, 0.0075 mL/L 2-3 times per day, 0 h",0.0 ± 0.0%
